Data: the CheMixHub viscosity set
± gives the uncertainty stated by the source.

Assay: xn = mol fraction of the nth substance listed

COCCOCCOCCOC + COC(=O)OC
298.15 K, 101.33 kPa
Conditions	viscosity [mPa·s]
x1 = 0.0029	0.592 ± 0.006
x1 = 0.0133	0.606 ± 0.006
x1 = 0.0209	0.618 ± 0.006
x1 = 0.0436	0.651 ± 0.006
x1 = 0.0642	0.679 ± 0.007
x1 = 0.0947	0.721 ± 0.007
x1 = 0.1187	0.753 ± 0.007
x1 = 0.1459	0.792 ± 0.007
x1 = 0.1856	0.846 ± 0.008
x1 = 0.2147	0.888 ± 0.008
x1 = 0.2593	0.953 ± 0.008
x1 = 0.3084	1.026 ± 0.009
x1 = 0.3099	1.025 ± 0.009
x1 = 0.3614	1.099 ± 0.009
x1 = 0.4011	1.157 ± 0.01
x1 = 0.4433	1.221 ± 0.01
x1 = 0.5005	1.303 ± 0.011
x1 = 0.5659	1.396 ± 0.011
x1 = 0.6004	1.449 ± 0.012
x1 = 0.6515	1.524 ± 0.012
x1 = 0.6923	1.585 ± 0.013
x1 = 0.7622	1.673 ± 0.013
x1 = 0.815	1.74 ± 0.014
x1 = 0.8324	1.76 ± 0.014
x1 = 0.9158	1.86 ± 0.014
x1 = 0.9541	1.899 ± 0.015

[Cl-].[NH4+] + O
viscosity [mPa·s]
Conditions	298.15 K	308.15 K	313.15 K	323.15 K
101.3 kPa, x1 = 0.00112	–	0.7299 ± 0.019	0.6608 ± 0.018	0.556 ± 0.015
101.3 kPa, x1 = 0.002247	–	0.7289 ± 0.019	0.6597 ± 0.018	0.5555 ± 0.015
101.3 kPa, x1 = 0.004484	–	0.7281 ± 0.019	0.659 ± 0.018	0.5551 ± 0.015
101.3 kPa, x1 = 0.008927	–	0.7279 ± 0.019	0.6586 ± 0.018	0.5547 ± 0.015
101.3 kPa, x1 = 0.0177	–	0.7315 ± 0.019	0.661 ± 0.018	0.557 ± 0.015
101.33 kPa, x1 = 0.000905	–	0.7306 ± 0.013	0.6614 ± 0.012	0.5565 ± 0.011
101.33 kPa, x1 = 0.002718	–	0.7295 ± 0.013	0.6608 ± 0.012	0.556 ± 0.011
101.33 kPa, x1 = 0.00453	–	0.7288 ± 0.013	0.6603 ± 0.012	0.5556 ± 0.011
101.33 kPa, x1 = 0.006344	–	0.7285 ± 0.013	0.6598 ± 0.012	0.5544 ± 0.011
101.33 kPa, x1 = 0.008159	–	0.731 ± 0.013	0.662 ± 0.012	0.557 ± 0.011
101.33 kPa, x1 = 0.1165	1.094 ± 0.036	–	–	–

O=S(=O)([O-])[O-].[Ni+2] + O
viscosity [mPa·s], 101 kPa
Conditions	x1 = 0.00332	x1 = 0.0106	x1 = 0.01799	x1 = 0.02625	x1 = 0.0309	x1 = 0.04249
298.15 K	1.04 ± 0.03	1.32 ± 0.03	1.82 ± 0.05	2.66 ± 0.07	3.13 ± 0.08	5.21 ± 0.14
313.15 K	0.762 ± 0.02	0.934 ± 0.024	1.283 ± 0.033	1.83 ± 0.048	2.145 ± 0.056	3.462 ± 0.091

Nc1ccccc1 + O=[N+]([O-])c1ccccc1
298.15 K, 101 kPa
Conditions	viscosity [mPa·s]
x2 = 0.1216	3.163 ± 0.084
x2 = 0.2269	2.741 ± 0.073
x2 = 0.4	2.328 ± 0.062
x2 = 0.5602	2.082 ± 0.055
x2 = 0.6878	1.949 ± 0.051
x2 = 0.8353	1.889 ± 0.05
x2 = 0.9171	1.836 ± 0.048

Nc1ccccc1 + CC(=O)O
viscosity [mPa·s]
Conditions	298.15 K	308.15 K	323.15 K
101.3 kPa, x1 = 0.0382	2.15 ± 0.06	1.72 ± 0.04	1.27 ± 0.03
101.3 kPa, x1 = 0.0652	3.65 ± 0.09	2.72 ± 0.07	1.83 ± 0.05
101.3 kPa, x1 = 0.0972	5.78 ± 0.15	4.07 ± 0.11	2.51 ± 0.06
101.3 kPa, x1 = 0.132	8.79 ± 0.24	5.69 ± 0.15	3.26 ± 0.08
101.3 kPa, x1 = 0.186	14.2 ± 0.4	8.51 ± 0.23	4.27 ± 0.11
101.3 kPa, x1 = 0.229	18.5 ± 0.5	10.5 ± 0.3	5.14 ± 0.13
101.3 kPa, x1 = 0.257	20.3 ± 0.6	11.4 ± 0.3	5.4 ± 0.14
101.3 kPa, x1 = 0.286	20.8 ± 0.6	11.6 ± 0.3	5.52 ± 0.14
101.3 kPa, x1 = 0.3	21.2 ± 0.6	11.8 ± 0.3	5.58 ± 0.15
101.3 kPa, x1 = 0.333	20.5 ± 0.6	11.6 ± 0.3	5.43 ± 0.14
101.3 kPa, x1 = 0.35	20.1 ± 0.6	11.1 ± 0.3	5.33 ± 0.14
101.3 kPa, x1 = 0.377	19 ± 0.6	10.7 ± 0.3	5.16 ± 0.14
101.3 kPa, x1 = 0.425	15.9 ± 0.5	9.01 ± 0.24	4.61 ± 0.12
101.3 kPa, x1 = 0.497	13.5 ± 0.4	7.7 ± 0.21	4.03 ± 0.1
101.3 kPa, x1 = 0.546	10.7 ± 0.3	6.51 ± 0.19	3.6 ± 0.11
101.3 kPa, x1 = 0.675	6.68 ± 0.18	4.48 ± 0.12	–
101.3 kPa, x1 = 0.799	5.08 ± 0.13	3.61 ± 0.09	2.39 ± 0.06
101.3 kPa, x1 = 0.86	4.57 ± 0.12	3.3 ± 0.08	2.25 ± 0.06
101.33 kPa, x1 = 0.1058	7.29 ± 0.073	–	2.96 ± 0.03
101.33 kPa, x1 = 0.1746	12.3 ± 0.12	–	–
101.33 kPa, x1 = 0.2824	21.9 ± 0.22	–	5.65 ± 0.056
101.33 kPa, x1 = 0.3086	21.4 ± 0.21	–	5.58 ± 0.056
101.33 kPa, x1 = 0.3408	20.3 ± 0.2	–	5.23 ± 0.052
101.33 kPa, x1 = 0.3878	18.1 ± 0.18	–	–
101.33 kPa, x1 = 0.5159	11.8 ± 0.12	–	3.82 ± 0.038
